Source: patent US20240182859A1, “MEDIUM COMPOSITION FOR CULTURING MUSCLE STEM CELL COMPRISING CURCUMIN LONGA, GLYSIN, OR INSULIN FOR PROLIFERATION OF MUSCLE STEM CELL” (HYUPSUNG UNIVERSITY INDUSTRY-ACADEMIC COOPERATION FOUNDATION, priority 2021, published 2024)

Experiments:
Pax7 = experiment: qPCR expression level of Pax7 (myoblast marker) in cultured muscle stem cells; format: cell-based, bovine; conditions: for expression of Pax7, concentration dependence: concentration series
Description: (§1) In detail, first, bovine rump meat was treated with trypsin, and then primary-cultured to obtain bovine muscle stem cells. Afterwards, a culture medium supplemented with curcumin and bFGF was prepared by varying the concentration of curcumin (0.1 μm, 1 μm, 5 μm, 8 μm, and 10 8 μm, respectively) in a DMEM basal medium supplemented with 5% FBS and 8 ng/ml of bFGF, and the muscle stem cells were cultured through passage culture twice.
(§2) In detail, first, bovine rump meat was treated with trypsin, and then primary-cultured to obtain bovine muscle stem cells. Afterwards, a culture medium supplemented with curcumin was prepared by varying the concentration of curcumin (0.1 μm, 1 μm, 5 μm, 8 μm, and 10 μm, respectively) in a DMEM basal medium supplemented with 5% FBS, and the muscle stem cells were cultured through passage culture twice.
(§3) In detail, first, bovine rump meat was treated with trypsin, and then primary-cultured to obtain bovine muscle stem cells.
(§4) First, bovine rump meat was treated with trypsin, and then primary-cultured to obtain bovine muscle stem cells.
(§5) In detail, first, bovine rump meat was treated with trypsin, and then primary-cultured to obtain bovine muscle stem cells. Afterwards, a culture medium supplemented with insulin and bFGF was prepared by varying the concentration of insulin (0.1 μm, 1 μm, 5 μm, 8 μm, and 10 8 μm, respectively) in a DMEM basal medium supplemented with 5% FBS and 8 ng/ml of bFGF, and the muscle stem cells were cultured through passage culture twice.
(§6) In detail, first, bovine rump meat was treated with trypsin, and then primary-cultured to obtain bovine muscle stem cells. Afterwards, a culture medium supplemented with insulin was prepared by varying the concentration of insulin (0.1 μm, 1 μm, 5 μm, 8 μm, and 10 μm, respectively) in a DMEM basal medium supplemented with 5% FBS, and the muscle stem cells were cultured through passage culture twice.

Nanog = experiment: qPCR expression level of Nanog (muscle stem cell marker) in cultured muscle stem cells; format: cell-based, bovine
Description: as §1, §2, §3, §4, §5, §6

bovine muscle stem cells = experiment: Proliferation of bovine muscle stem cells in supplemented DMEM culture medium; format: cell-based
Description: as §3
In detail, first, bovine rump meat was treated with trypsin, and then primary-cultured to obtain bovine muscle stem cells. […] As a control, a DMEM basal medium supplemented with 5% FBS was used.
In detail, first, bovine rump meat was treated with trypsin, and then primary-cultured to obtain bovine muscle stem cells. Afterwards, the muscle stem cells were cultured in the DMEM basal medium supplemented with 5% FBS and 10 μM of insulin, and the proliferation of the muscle stem cells was measured. As a control, a DMEM basal medium supplemented with 5% FBS was used.

Oct4 = experiment: qPCR expression level of Oct4 (muscle stem cell marker) in cultured muscle stem cells; format: cell-based, bovine
Description: as §1, §2, §3, §4, §5, §6

[1] = medium with 5% FBS + 8 ng/ml bFGF
[2] = bFGF-free medium with 5% FBS, overall statement
[3] = medium with 5% FBS + 8 ng/ml bFGF, overall statement, passage culture twice
[4] = glycine 1 mM to 50 mM, bFGF-free
[5] = insulin 10 μm or more, with 8 ng/ml bFGF

## COc1cc(/C=C/C(=O)CC(=O)/C=C/c2ccc(O)c(OC)c2)ccc1O [curcumin]
Pax7; bFGF-free medium with 5% FBS
  expression of Pax7, concentration dependence: increased in proportion to the concentration of curcumin
Pax7; curcumin 8 μm, bFGF-free
  expression of Pax7: significantly increased
Pax7; [1]
  expression of Pax7, concentration dependence: increased in proportion to the concentration of curcumin
Nanog; [2]
  expression of Nanog: maintained
Nanog; curcumin 0.1 μm and 1 μm, with 8 ng/ml bFGF
  expression of Nanog vs curcumin-free DMSO control: increased by about twice
Nanog; curcumin 5 μm or more, with 8 ng/ml bFGF
  expression of Nanog: significantly decreased
Nanog; curcumin 8 μm, bFGF-free
  expression of Nanog: significantly decreased
Nanog; [3]
  expression of Nanog: increased
Bovine muscle stem cells; 8 μm curcumin, DMEM + 5% FBS + 8 ng/ml bFGF, cultured for 29 days
  cell proliferation rate increase compared to basal medium: ≥ 1.5 times
Bovine muscle stem cells; 8 μm curcumin, DMEM + 5% FBS, bFGF-free, cultured for 41 days
  cell proliferation rate increase compared to basal medium: ≥ 1.5 times
Oct4; curcumin 0.1 μm to 5 μm, with 8 ng/ml bFGF
  expression of Oct4 vs curcumin-free DMSO control: increased by about twice
Oct4; curcumin 1 μm to 5 μm, bFGF-free
  expression of Oct4 vs curcumin-free DMSO control: increased by at least about twice
Oct4; curcumin 8 μm or more, with 8 ng/ml bFGF
  expression of Oct4: significantly decreased
Oct4; curcumin 8 μm, bFGF-free
  expression of Oct4: significantly decreased
Oct4; [3]
  expression of Oct4: increased

## NCC(=O)O [glycine]
Pax7; 10 µM, bFGF-free insulin culture medium
  expression of Pax7 increase vs insulin-free DMSO control: ≥ 6 times
Pax7; bFGF-free medium with 5% FBS
  expression of Pax7, concentration dependence: increased in proportion to the concentration of glycine
Pax7; glycine 100 mM or more, bFGF-free
  expression of Pax7 increase vs glycine-free DMSO control: ≥ 3 times
Pax7; [1]
  expression of Pax7, concentration dependence: increased in proportion to the concentration of glycine
Nanog; [4]
  expression of Nanog vs glycine-free DMSO control: increased by about twice
Nanog; glycine 10 mM to 100 mM, with 8 ng/ml bFGF
  expression of Nanog vs glycine-free DMSO control: increased by about twice
Nanog; glycine 100 mM, bFGF-free
  expression of Nanog: significantly decreased
Nanog; glycine 150 mM or more, with 8 ng/ml bFGF
  expression of Nanog: significantly decreased
Nanog; [3]
  expression of Nanog: increased
Bovine muscle stem cells; 100 mM glycine, DMEM + 5% FBS + 8 ng/ml bFGF, cultured for 29 days
  cell proliferation rate increase compared to basal medium: ≥ 1.5 times
Bovine muscle stem cells; 100 mM glycine, DMEM + 5% FBS, bFGF-free, cultured for 41 days
  cell proliferation rate increase compared to basal medium: ≥ 4.1 times
Oct4; [4]
  expression of Oct4 vs glycine-free DMSO control: increased by about twice
Oct4; glycine 1 mM to 50 mM, with 8 ng/ml bFGF
  expression of Oct4 increase vs glycine-free DMSO control: about 2.3 times
Oct4; glycine 100 mM or more, with 8 ng/ml bFGF
  expression of Oct4: significantly decreased
Oct4; glycine 100 mM, bFGF-free
  expression of Oct4: significantly decreased
Oct4; [3]
  expression of Oct4: increased

## insulin
Pax7; bFGF-free medium with 5% FBS
  expression of Pax7, concentration dependence: increased in proportion to the concentration of insulin
Pax7; [1]
  expression of Pax7, concentration dependence: increased in proportion to the concentration of insulin
Nanog; [2]
  expression of Nanog: maintained
Nanog; [5]
  expression of Nanog: significantly decreased
Nanog; insulin 10 μm, bFGF-free
  expression of Nanog: significantly decreased
Nanog; [3]
  expression of Nanog: increased
Bovine muscle stem cells; 10 μm insulin, DMEM + 5% FBS + 8 ng/ml bFGF, cultured for 29 days
  cell proliferation rate increase compared to basal medium: ≥ 6 times
Bovine muscle stem cells; 10 μm insulin, DMEM + 5% FBS, bFGF-free, cultured for 41 days
  cell proliferation rate increase compared to basal medium: ≥ 13 times
Oct4; [2]
  expression of Oct4: increased
Oct4; [5]
  expression of Oct4: significantly decreased
Oct4; [3]
  expression of Oct4: increased
